Data on seven molecules can be found in US7939542B2, “Cinnamaldehyde derivatives having improved solubility in water, a method for preparing the same and a pharmaceutical composition comprising the same” (Korea Research Institute of Bioscience and Biotechnology, priority 2008, dated 2011).

Data set [1] can be described thus: Solubility (physicochemical properties). The note with it: for Solubility: Insoluble: solvents in which the compound is insoluble; for Solubility: Soluble: solvents in which the compound is soluble.
Data set [2] deals with human colon carcinoma SW620 cells. The data set is described as follows: Cell cycle analysis by flow cytometry (PI staining). The note with it: 48 hours. Format: cell-based. The protocol:
In practice, when human colon carcinoma SW620 cells are dosed with 10 to 20 μM of the compound of Chemical Formula 1, the compound induces a cell cycle arrest in the G2/M phase, leading to cell growth inhibition. The inhibition of the growth of cancer cells may be tested as follows. In brief, human colon carcinoma SW620 cells were dosed with the compound dissolved in DMSO. After 48 hrs, nuclear DNA was stained with propidium iodide. The stained cells were analyzed to determine the cell cycle using a FACSCalibur cytometer (Becton-Dickinson, San Jose, Calif., USA). The proportions of cells in G1, S and G2/M phases were determined using a Becton-Dickinson Modifit cell-cycle analysis program and expressed as percentages.
For flow cytometric analysis, human colon carcinoma SW620 cells were plated in T25 flasks (containing 7.5 ml of culture medium) and cultured in RPMI 1640 and DMEM media, each of which was supplemented with 10% FBS, in an incubator at 37° C. for 12 hrs. Then, as a control, DMSO was added to the culture medium at a final concentration of 0.1% (7.5 μl). As compound treatment groups, 7.5 μl of each of compounds dissolved in DMSO at various concentrations was added to the culture medium. After 48 hours, control (DMSO) and compound-treated cells were harvested and subjected to flow cytometric analysis.
After the culture media were removed from flasks, cells were trypsinized and centrifuged at 300 g for 5 min. The collected cells were washed with phosphate buffer twice to remove culture media. The cells were then fixed in 3 ml of 70% ethanol at −20° C. for 12 hrs. The fixed cells were centrifuged at 300 g for 5 min and washed with cold PBS twice to remove remaining ethanol. The washed cells were resuspended in 500 μl of PBS, and treated with 50 μl of 100 μg/ml RNase A at 37° C. for 30 min. Then, cells were incubated in 10 μl of 1 mg/ml propidium iodide (PI) in PBS for DNA staining. The cell cycles of 20,000 stained cells were analyzed using a FACSCalibur cytometer (Becton-Dickinson, San Jose, Calif., USA). Cell cycle fractions were quantified using a Becton-Dickinson Modifit cell-cycle analysis program, and the distribution of cells in G1, S and G2/M phases was expressed as percentages.

The nature of data set [3]: Body weight change in tumor-xenografted nude mice. The note with it: positive control 2 mg/kg, 18 days, p<0.001.
Protocol: Nude mice were divided into three groups: a compound administration group, a vehicle control group and a positive control group. A 0.3-ml aliquot of human colon carcinoma HT-29 cells (3×10^7 cells/ml) was injected subcutaneously into the right axilla between the scapular region and the chest wall of mice. From the day (Day 1) after tumor transplantation to the day before sacrifice, the compound of Chemical Formula 6 was administered orally at a dose of 10 mg/kg once every day.
In order to investigate the clinical signs of drug toxicity, animals were monitored for change in body weight about three times a week during the test period.
In data set [4] the test system is human colon carcinoma HT-29 cells. The data set is described as follows: Anticancer activity upon oral administration to tumor-xenografted nude mice. In kind it is in vivo. The note with it: HT-29 xenograft, 10 mg/kg orally once every day, Day 18, p<0.001. On the procedure: Tumor diameter was measured in three planes with a vernier caliper. Tumor volume (V) was calculated using the following Equation 1. Tumor volume=(Length×Width×Height)/2 [Equation 1]
On Day 18 of tumor transplantation, animals were sacrificed, and tumors were excised and weighed.

Consider `CN1CCN(C(=O)Oc2ccccc2/C=C/C=O)CC1.Cl` [Compound of Formula 7], for which, in data set [1], the “Solubility: Insoluble” value was “Hexane, acetone” and the “Solubility: Soluble” value is “Alcohol, H2O”. Moreover, in data set [2] (SW620, 30 μM), the “Cell distribution (%) G0-G1” value is on record as 35.11%, the “Cell distribution (%) G2-M” value came out at 47.83% and the “Cell distribution (%) S” value worked out at 17.06%.

Regarding `COCC(=O)Oc1ccccc1/C=C/C=O` [Compound of Formula 2], in data set [1], the “Solubility: Insoluble” value was “Hexane”; the “Solubility: Soluble” value is given as “Alcohol, DMSO”; the Water solubility was found to be 320 µM. For the same molecule, in data set [2] (SW620, 20 μM), the “Cell distribution (%) G0-G1” value is given as 33.00%, the “Cell distribution (%) G2-M” value is listed as 49.94% and the “Cell distribution (%) S” value turned out to be 17.06%.

`CN1CCN(C(=O)Oc2ccccc2/C=C/C=O)CC1` [Compound of Formula 4]: in data set [1], the “Solubility: Insoluble” value is on record as “Hexane, H2O” and the “Solubility: Soluble” value is “Alcohol, DMSO”. In data set [2] (SW620, 30 μM), the “Cell distribution (%) G0-G1” value is 37.50%, the “Cell distribution (%) G2-M” value is 45.49% and the “Cell distribution (%) S” value stood at 17.01%.

Turning to `O=C/C=C/c1ccccc1OS(=O)(=O)c1ccccc1` [Compound of Formula 5], in data set [1], the “Solubility: Insoluble” value was “Hexane”; the “Solubility: Soluble” value was “Alcohol, DMSO”; the Water solubility was found to be 600 µM. Besides, in data set [2] (SW620, 20 μM), the “Cell distribution (%) G0-G1” value came out at 36.01%, the “Cell distribution (%) G2-M” value was determined as 45.94% and the “Cell distribution (%) S” value is 18.05%.

In turn, `COc1cccc2c1C(=O)c1c(O)c3c(c(O)c1C2=O)C[C@@](O)(C(=O)CO)C[C@@H]3O[C@H]1C[C@H](N)[C@H](O)[C@H](C)O1` [adriamycin] returned a weight loss in data set [3] of 10.3%.

Regarding `Cl.O=C/C=C/c1ccccc1OCc1ccncc1` [Compound of Formula 6], in data set [1], the “Solubility: Insoluble” value is on record as “Hexane, acetone” and the “Solubility: Soluble” value is listed as “Alcohol, H2O”. Moreover, in data set [2] (SW620, 20 μM), the “Cell distribution (%) G0-G1” value stood at 39.80%, the “Cell distribution (%) G2-M” value was found to be 33.63% and the “Cell distribution (%) S” value was determined as 26.57%. Also, in data set [2] (SW620, 40 μM), the “Cell distribution (%) G0-G1” value came out at 43.85%, the “Cell distribution (%) G2-M” value was 41.31% and the “Cell distribution (%) S” value was 14.84%. In addition, in data set [4], the “tumor growth inhibitory effect” value amounted to 30.7%.

For `O=C/C=C/c1ccccc1OCc1ccncc1` [Compound of Formula 3], in data set [1], the “Solubility: Insoluble” value is on record as “Hexane, H2O” and the “Solubility: Soluble” value is on record as “Alcohol, DMSO”. For the same molecule, in data set [2] (SW620, 20 μM), the “Cell distribution (%) G0-G1” value is 39.80%, the “Cell distribution (%) G2-M” value is on record as 33.63% and the “Cell distribution (%) S” value came to 26.57%.
